Reference: patent publication US6982273B1, “Compositions and methods containing bioavailable Se-methyl-L-selenocysteine for human and veterinary use” (Sami Labs Ltd., priority 2002, dated 2006)

What was measured:
[1] = tested on: dimethyl-benz(a)anthracene-induced mammary tumor; details: 1–2 ppm Se in diet from 1 week before DMBA until sacrifice; order of efficacy: Se-methylselenocysteine > selenite > selenocysteine > dimethyl selenoxide; cited from earlier work
[2] = tested on: glutathione peroxidase; details: selenium-depleted animals; efficiency: Se-methylselenocysteine > dimethyl selenoxide > trimethylselenonium; cited from earlier work
[3] = tested on: rats with macrophage associated liver injury and endotoxemia; test: Suppression of macrophage associated liver injury and endotoxemia (P. acnes + LPS) in rats; format: in vivo, rat; details: Se-methyl-L-selenocysteine 4 mg/kg, composition 2 mg/kg
Description: The composition used consisted of Se-methyl-L-selenocysteine of the parent application to which piperine from black pepper fruit was added such that the animals received a co-administered daily dose of 5 mg of piperine.
Study Design: Male Wistar King A rats (200–250 g) were maintained on a basal pelleted diet and water ad libitum under normal temperature and lighting conditions. All rats received an injection of 40 mg/kg body weight of heat killed Propionibacterium acnes (ATCC 11827), 20 mg/ml suspension in saline via the tail vein on day 1. Seven days later they received an intravenous injection of 350 mcg/kg body weight of lipopolysaccharide (LPS, Difco Laboratories, MI, USA), 200 mcg/ml solution in saline). 5 rats received a daily dose of 4 mg/kg body weight of Se-methyl-L-selenocysteine and 5 rats received 2 mg/kg body weight of the composition of the invention, orally for 3 days in the feed, 4 control rats received no supplementation, prior to induction of liver injury, 4 normal controls were not subjected to liver injury. Serum levels of TNF-α were measured. TNF-α is thought to be the principal mediator of the deleterious effects of LPS.

| Compound | chemopreventive activity (tumor inhibition) [1] | ability to restore glutathione peroxidase activity [2] | other results |
| --- | --- | --- | --- |
| N[C@@H](C[SeH])C(=O)O [selenocysteine] | tumor inhibition |  |  |
| C[Se](C)=O [dimethyl selenoxide] | tumor inhibition | fully replete |  |
| O=[Se](O)O [selenite] | tumor inhibition |  |  |
| C[Se+](C)C [trimethylselenonium] |  | fully replete |  |
| C[Se]C[C@H](N)C(=O)O [Se-methyl-L-selenocysteine] | tumor inhibition | fully replete | Catalase ([3]; oral 3 days): 31.16 ± 3.95 micromole of H2O2 consumed/min; Glutathione (GSH) ([3]; oral 3 days): 7.43 ± 0.69 mcg/mg protein; Glutathione peroxidase ([3]; oral 3 days): 8.13 ± 0.71 micromole of GSH oxidized/min/; Serum Lipid peroxides ([3]; oral 3 days): 2.71 ± 0.32 MDA formed/mg protein; Superoxide dismutase ([3]; oral 3 days): 4.91 ± 0.48 Units/min/mg protein; TNF-alpha (serum) ([3]; oral 3 days): 81 ± 6 ng/mL; Survival rate ([3]; oral in feed 3 days before injury, survivors/n): 3/5 |
